Tests used:
[1] = test system: apoE knockout mice (apoE-KO mice); conditions: inhalation of gas mixture with approximately 2% hydrogen gas
Description: (§1) The size of this container was as follows: W: 550 mm; L: 400 mm; and H: 300 mm.
(§2) Then, effects on body fat and the liver were examined. 9-week-old male apoE-KO mice were placed in cages (4 mice each). One group was designated as a control group and normal air was supplied thereto.

[2] = hydrogen pressure of 1 atmosphere, room temperature; cited from earlier work
[3] = test system: apoE knockout mice (apoE-KO mice); conditions: 11 weeks after hydrogen administration, approximately 2% hydrogen gas inhalation
Description: as §1, §2
11 weeks after hydrogen administration, the mice were subjected to measurement of muscle force. Upon measurement, each mouse was allowed to hold a mesh wire of the ceiling and the time period until it fell from the ceiling was determined.

[4] = test system: apoE knockout mice (apoE-KO mice); conditions: approximately 2% hydrogen gas inhalation, vs control group
Experimental: as §1, §2
Next, each mouse was analyzed with an X-ray CT for laboratory animals (LaTheta LCT-100A, Aloka Co., Ltd.). General anesthesia induction was carried out by supplying an anesthetic gas mixture (oxygen: 0.3 L/min; nitrous-oxide gas: 0.7 L/min; Sevofrane: 3% (Maruishi Pharmaceutical Co., Ltd.)) to each mouse with the use of a general anesthesia apparatus for small animals (Soft Lander, NeuroScience, Inc). CT scanning was carried out under anesthesia so as to obtain whole-body images (FIG. 9, upper images). Then, fat regions were determined based on CT values so as to specify subcutaneous fat and visceral fat (FIG. 9, lower images). Each cross-sectional area was multiplied by the thickness so as to obtain the volume, followed by estimation of the fat and muscle weights. […] In addition, fat percentages were obtained by the following equation.
Fat percentage (%)=fat [visceral fat+subcutaneous fat]/(fat [visceral fat+subcutaneous fat]+muscle)×100

[5] = test system: apoE knockout mice (apoE-KO mice); experiment: Serum items, organ weights and fat accumulated in the liver 12 weeks after hydrogen gas inhalation; assay type: in vivo, mouse; conditions: 12 weeks hydrogen gas inhalation, vs control group
Experimental: The amounts of the following items in serum were measured: total cholesterol, LDL cholesterol, HDL cholesterol, neutral fat, AST, ALT, creatinine kinase, total protein, lactate dehydrogenase, urea nitrogen, total bilirubin, creatinine, alkaline phosphatase, choline esterase, and albumine. […] Each liver was fixed with 4% paraformaldehyde overnight, followed by dehydration with sucrose. Thereafter, frozen sections were prepared and stained with Oil-Red O. Then, the amount of lipids accumulated in the liver was calculated (FIG. 13A, images). The stained portions indicate fat accumulation.

With `[HH]` [hydrogen gas] as the molecule, how does the “weight increases vs control group” value [1] read?
The value was “significantly suppressed”.

And the “hydrogen dissolved in 1 L of water” value [2]?
Its value is “approximately 17.5 mL”.

And the “muscle force: time period until mouse fell from mesh wire of the ceiling” value [3]?
Its value is “significantly long time”.

And the “amount of subcutaneous fat (CT)” value [4]?
Its value is “significantly decreased”.

And the “amount of total fat (CT)” value [4]?
Its value is “significantly decreased”.

And the “amount of visceral fat (CT)” value [4]?
The value was “significantly decreased”.

What about the “fat percentage (fat/(fat+muscle) x100, CT)” value [4] of the same molecule?
Its value is “more significantly decreased”.

And the kidney weight [5]?
The kidney weight was “significantly decreased”.

And the liver weight [5]?
The liver weight was “significantly decreased”.

And the “serum ALT” value [5]?
Its value is “no difference was observed”.

And the “serum AST” value [5]?
The value was “no difference was observed”.

And the “serum HDL cholesterol” value [5]?
Its value is “no difference was observed”.

What about the “serum LDL cholesterol” value [5] of the same molecule?
Its value is “no difference was observed”.

And the serum albumine [5]?
Its serum albumine is “no difference was observed”.

What about the serum alkaline phosphatase [5] of the same molecule?
Its serum alkaline phosphatase is “no difference was observed”.

And the serum choline esterase [5]?
Its serum choline esterase is “no difference was observed”.

And the serum creatinine [5]?
Its serum creatinine is “no difference was observed”.

What about the serum creatinine kinase [5] of the same molecule?
Its serum creatinine kinase is “no difference was observed”.

What about the serum lactate dehydrogenase [5] of the same molecule?
The serum lactate dehydrogenase was “no difference was observed”.

And the serum neutral fat [5]?
The serum neutral fat was “no difference was observed”.

What about the serum total bilirubin [5] of the same molecule?
Its serum total bilirubin is “no difference was observed”.

And the serum total cholesterol [5]?
The serum total cholesterol was “no difference was observed”.

What about the serum total protein [5] of the same molecule?
Its serum total protein is “no difference was observed”.

What about the serum urea nitrogen [5] of the same molecule?
The serum urea nitrogen was “no difference was observed”.

— patent publication US20090246290A1, “Lipid metabolism improving agent containing hydrogen molecules” (priority 2006, published 2009)
